According to US10111907B2, “Methods of treating ischemia” (FATE THERAPEUTICS, INC., priority 2011, dated 2018):

Test system: CD34+ cells
Test: SDF-1 transwell migration assay
Assay type: cell-based
Settings: CD34+ cells treated 4 hours at 37° C. at 10 μM, washed; 50 ng/mL SDF1 in lower chamber, 2.5 hours; compared to DMSO control
Procedure: Transwell migration assays were performed using 96-well chemotaxis chambers, […] pore size polycarbonate membrane (Corning Inc., Corning, N.Y.) in accordance with manufacturer's instructions. Briefly, CD34^+ cells were then treated for 4 hours at 37° C. with 16,16-dimethyl PGE2 (dmPGE2), dmPGE2 and glucocorticoid, or DMSO control at a concentration of 10 μM in StemSpan® media (StemCell Technology, Vancouver, Canada). The cells were then washed by centrifugation (300 g for 10 minutes) and resuspended in transwell assay buffer (Phenol Red Free RPMI media (Mediatech), 0.5% lipid free BSA (Sigma-Aldrich) at a concentration of 40,000-60,000 cells/75 μl.
To test the duration of the treatment effects, one portion of treated cells was washed by centrifugation (300 g for 10 minutes) and resuspended in StemSpan® media for 4 hours at 37° C. without dmPGE2, glucocorticoids, or DMSO and then washed again by centrifugation (300 g for 10 minutes) and resuspended in transwell assay buffer (Phenol Red Free RPMI media (Mediatech), 0.5% lipid free BSA (Sigma-Aldrich) at a concentration of 40,000-60,000 cells/75 μl.
Seventy-five μl of cell suspension was added to the upper chamber of the plate, while 235 μl of transwell assay media containing 0 or 50 ng/ml SDF 1α (R&D system, Minneapolis, Minn.) was added to the bottom well. […]

CCCCC(C)(C)[C@H](O)/C=C/[C@H]1[C@H](O)CC(=O)[C@@H]1C/C=C\CCCC(=O)O [dmPGE2, 16,16-dimethyl PGE2]
SDF1-driven cell migration (% of cells added): increased SDF1-driven cell migration compared to the DMSO control
